In patent US11319328B2 (priority 2017, dated 2022):

Legend:
Assay in all cases: cells
Type in all cases: cell-based
[1] = tested on: breast cancer MCF7 cell line; details: cultured 48 h, MTT
Description: (§1) A cell strain: Hepatoma HepG2, cervical cancer Hela, lung cancer A549, breast cancer MCF7 cell line and human normal liver cell HL7702 were purchased from Wuhan Boster Biological Technology Co., Ltd.;
(§2) HepG2, Hela, A549, MCF 7 cells in logarithmic growth phase and human normal hepatocytes HL7702 were centrifuged at 1500 rpm for 5 min, and the supernatant was discarded; the cells were digested with a suitable amount of trypsin, and then suspended with a suitable amount of culture medium (HepG2, Hela and HL7702 cells were suspended with penicillin-streptomycin RPMI1640 culture medium containing 10% calf serum, A549 and MCF 7 cells with penicillin-streptomycin high glucose DMEM culture medium containing 10% calf serum, to adjust the cell concentration to 1.5×10^4 cells/well, the cells were seeded in 96-well plates, and the following experimental groups were set:
(§3) 0.10 mL of the cell suspension was added to each well, and incubated at 37° C., 5% CO2 and saturated humidity for 12 h, and the culture medium was discarded when the cell density was nearly 70%. […] 100 μl of 5 mg/ml MTT was added per well, standing for 4 h at 37° C. 100 μl of DMSO was added to each well, followed by shaking on a shaker for 10 min at 37° C., the absorbance (OD) was measured at 492 nm, and the MTT ratio was calculated as the OD value of drug group/OD value of negative control group.

[2] = tested on: human normal liver cell HL7702; details: human normal hepatocytes HL7702, cultured 48 h, MTT
Description: as §1, §2, §3

[3] = tested on: lung cancer A549; details: cultured 48 h, MTT
Description: as §1, §2, §3

[4] = tested on: cervical cancer Hela; details: cultured 48 h, MTT
Description: as §1, §2, §3

[5] = tested on: Hepatoma HepG2; details: cultured 48 h, MTT
Description: as §1, §2, §3

| IC50 ([1]; Homo sapiens) | IC50 ([3]; Homo sapiens) | IC50 ([4]; Homo sapiens) | IC50 ([5]; Homo sapiens) | SMILES | IC50 [1] | IC50 [2] | IC50 [3] | IC50 [4] | IC50 [5] | IC50 ([2]; L02) |
| --- | --- | --- | --- | --- | --- | --- | --- | --- | --- | --- |
| – | – | – | – | COc1cc([C@@H]2c3cc4c(cc3[C@@H](Nc3cccc5ccc(C)nc35)[C@@H]3COC(=O)[C@H]23)OCO4)cc(OC)c1OC [Compound 11, 4β-NH-(8-aminoquinaldine) podophyllotoxin] | 1 ± 0.2 µM | > 100 µM | 3 ± 0.4 µM | 1.5 ± 0.1 µM | 1.6 ± 0.1 µM | – |
| – | – | – | – | COc1cc(C2c3cc4c(cc3C(Nc3ccc5[nH]ncc5c3)C3COC(=O)C23)OCO4)cc(OC)c1OC (stereo not drawn) [Compound 12, 4β-NH-(5-indazolamine) podophyllotoxin] | 0.4 ± 0.03 µM | 50 µM | 0.2 ± 0.02 µM | 0.5 ± 0.01 µM | 0.3 ± 0.02 µM | – |
| – | – | – | – | COc1cc(C2c3cc4c(cc3C(Nc3ccc5cn[nH]c5c3)C3COC(=O)C23)OCO4)cc(OC)c1OC (stereo not drawn) [Compound 13, 4β-NH-(6-indazolamine) podophyllotoxin] | 1.3 ± 0.2 µM | 33.6 ± 1.5 µM | 2.4 ± 0.2 µM | 2.1 ± 0.3 µM | 1.8 ± 0.2 µM | – |
| – | – | – | – | COc1cc([C@@H]2c3cc4c(cc3[C@@H](Nc3cccc5cn[nH]c35)[C@@H]3COC(=O)[C@H]23)OCO4)cc(OC)c1OC [Compound 14, 4β-NH-(7-indazolamine) podophyllotoxin] | 0.4 ± 0.01 µM | 43.3 ± 2.8 µM | 0.5 ± 0.01 µM | 0.9 ± 0.01 µM | 0.9 ± 0.1 µM | – |
| – | – | – | – | COc1cc(C2c3cc4c(cc3C(Nc3ccc5[nH]ccc5c3)C3COC(=O)C23)OCO4)cc(OC)c1OC (stereo not drawn) [Compound 15, 4β-NH-(5-aminoindole) podophyllotoxin] | 4.8 ± 0.9 µM | 30.5 ± 2.7 µM | 2.2 ± 0.9 µM | 3.8 ± 0.2 µM | 2.5 ± 0.6 µM | – |
| – | – | – | – | COc1cc(C2c3cc4c(cc3C(Nc3ccc5cc[nH]c5c3)C3COC(=O)C23)OCO4)cc(OC)c1OC (stereo not drawn) [Compound 16, 4β-NH-(6-aminoindole) podophyllotoxin] | 0.3 ± 0.01 µM | 140 µM | 0.2 ± 0.02 µM | 0.4 ± 0.01 µM | 0.6 ± 0.01 µM | – |
| – | – | – | – | COc1cc([C@@H]2c3cc4c(cc3[C@@H](Nc3cccc5cc[nH]c35)[C@@H]3COC(=O)[C@H]23)OCO4)cc(OC)c1OC [Compound 17, 4β-NH-(7-aminoindole) podophyllotoxin] | 0.8 ± 0.1 µM | 38.4 ± 2.6 µM | 1 ± 0.1 µM | 0.8 ± 0.1 µM | 1.9 ± 0.2 µM | – |
| – | – | – | – | COc1cc(C2c3cc4c(cc3C(Nc3ccccc3-c3nc5ccccc5[nH]3)C3COC(=O)C23)OCO4)cc(OC)c1OC (stereo not drawn) [Compound 18, 4β-NH-(2-(2-aminophenyl)benzimidazole)-podophyllotoxin] | 1.7 ± 0.2 µM | > 100 µM | 2.8 ± 0.1 µM | 4.8 ± 0.2 µM | 3.6 ± 0.3 µM | – |
| – | – | – | – | COc1cc([C@@H]2c3cc4c(cc3[C@@H](Nc3ccc(C)c(-c5nccc(-c6cccnc6)n5)c3)[C@@H]3COC(=O)[C@H]23)OCO4)cc(OC)c1OC [Compound 19, 4β-NH-(2-(5-amino-2-methylphenyl)-4-(3-pyridyl)pyrimidine)-podophyllotoxin] | 9.5 ± 0.8 µM | > 100 µM | 7.7 ± 0.6 µM | 4.8 ± 0.4 µM | 6.6 ± 0.1 µM | – |
| – | – | – | – | COc1cc(C2c3cc4c(cc3C(Nc3cccc5c3C(=O)c3ccccc3C5=O)C3COC(=O)C23)OCO4)cc(OC)c1O (stereo not drawn) [Compound 20, 4β-NH-(1-aminoanthraquinone)-4′-demethylepipodophyllotoxin] | 2.3 ± 0.1 µM | 53.7 ± 5.3 µM | 1.8 ± 0.2 µM | 8.5 ± 2.1 µM | 8.8 ± 2.1 µM | – |
| – | – | – | – | COc1cc([C@@H]2c3cc4c(cc3[C@@H](Nc3ccc5c(c3)C(=O)c3ccccc3C5=O)[C@@H]3COC(=O)[C@H]23)OCO4)cc(OC)c1O [Compound 21, 4β-NH-(2-aminoanthraquinone)-4′-demethylepipodophyllotoxin] | 4 ± 0.5 µM | 55.4 ± 6.2 µM | > 100 µM | 1.9 ± 0.3 µM | 1.1 ± 0.4 µM | – |
| – | – | – | – | COc1cc(C2c3cc4c(cc3C(Nc3ccc5c(c3N)C(=O)c3ccccc3C5=O)C3COC(=O)C23)OCO4)cc(OC)c1O (stereo not drawn) [Compound 22, 4β-NH-(1,2-diaminoanthraquinone)-4′-demethylepipodophyllotoxin] | 18.1 ± 2.8 µM | > 100 µM | > 100 µM | > 100 µM | > 100 µM | – |
| – | – | – | – | COc1cc([C@@H]2c3cc4c(cc3[C@@H](Nc3cccc5c3C(=O)c3cccc(N)c3C5=O)[C@@H]3COC(=O)[C@H]23)OCO4)cc(OC)c1O [Compound 23, 4β-NH-(1,5-diaminoanthraquinone)-4′-demethylepipodophyllotoxin] | > 100 µM | > 100 µM | > 100 µM | > 100 µM | > 100 µM | – |
| – | – | – | – | COc1cc(C2c3cc4c(cc3C(Nc3ccc5c(c3)C(=O)c3ccc(N)cc3C5=O)C3COC(=O)C23)OCO4)cc(OC)c1O (stereo not drawn) [Compound 24, 4β-NH-(2,6-diaminoanthraquinone)-4′-demethylepipodophyllotoxin] | 4.2 ± 1.1 µM | > 100 µM | > 100 µM | > 100 µM | > 100 µM | – |
| – | – | – | – | COc1cc([C@@H]2c3cc4c(cc3[C@@H](Nc3nc(N)nc5ccccc35)[C@@H]3COC(=O)[C@H]23)OCO4)cc(OC)c1O [Compound 25, 4β-NH-(2,4-quinazolinediamine)-4′-demethylepipodophyllotoxin] | 6.1 ± 1.3 µM | 16.9 ± 2.5 µM | 3.6 ± 0.8 µM | 3.6 ± 0.9 µM | 9.8 ± 1.7 µM | – |
| – | – | – | – | COc1cc(C2c3cc4c(cc3C(Nc3ccc5ncccc5c3)C3COC(=O)C23)OCO4)cc(OC)c1O (stereo not drawn) [Compound 26, 4β-NH-(6-aminoquinoline)-4′-demethylepipodophyllotoxin] | 4.3 ± 0.8 µM | 22.8 ± 4.2 µM | 2 ± 0.5 µM | 5.7 ± 1.1 µM | 10 ± 1.9 µM | – |
| – | – | – | – | COc1cc(C2c3cc4c(cc3C(Nc3cccc5ncccc35)C3COC(=O)C23)OCO4)cc(OC)c1O (stereo not drawn) [Compound 27, 4β-NH-(5-aminoquinoline)-4′-demethylepipodophyllotoxin] | 2.4 ± 0.9 µM | 15.6 ± 1.8 µM | 1.3 ± 0.2 µM | 2.1 ± 1 µM | 1.6 ± 0.8 µM | – |
| – | – | – | – | COc1cc(C2c3cc4c(cc3C(Nc3cccc5cnccc35)C3COC(=O)C23)OCO4)cc(OC)c1O (stereo not drawn) [Compound 28, 4β-NH-(5-aminoisoquinoline)-4′-demethylepipodophyllotoxin] | 2.5 ± 0.9 µM | 19.8 ± 2.1 µM | 1.4 ± 0.6 µM | 1.9 ± 0.9 µM | 2.8 ± 1.6 µM | – |
| – | – | – | – | COc1cc([C@@H]2c3cc4c(cc3[C@@H](Nc3cccc5cccnc35)[C@@H]3COC(=O)[C@H]23)OCO4)cc(OC)c1O [Compound 29, 4β-NH-(8-aminoquinoline)-4′-demethylepipodophyllotoxin] | 1.5 ± 0.4 µM | 73 ± 7.8 µM | 2.8 ± 0.4 µM | 3.8 ± 0.2 µM | 4.5 ± 1.5 µM | – |
| – | – | – | – | COc1cc(C2c3cc4c(cc3C(Nc3cccc5ccc(C)nc35)C3COC(=O)C23)OCO4)cc(OC)c1O (stereo not drawn) [Compound 30, 4β-NH-(8-aminoquinaldine)-4′-demethylepipodophyllotoxin] | 3 ± 0.5 µM | > 100 µM | 0.5 ± 0.05 µM | 4.2 ± 0.8 µM | 5 ± 1.1 µM | – |
| – | – | – | – | COc1cc(C2c3cc4c(cc3C(Nc3ccc5[nH]ncc5c3)C3COC(=O)C23)OCO4)cc(OC)c1O (stereo not drawn) [Compound 31, 4β-NH-(5-indazolamine)-4′-demethylepipodophyllotoxin] | 3.5 ± 0.3 µM | > 100 µM | 1.7 ± 0.3 µM | 4.3 ± 0.9 µM | 6.8 ± 1.5 µM | – |
| – | – | – | – | COc1cc([C@@H]2c3cc4c(cc3[C@@H](Nc3ccc5[nH]ccc5c3)[C@@H]3COC(=O)[C@H]23)OCO4)cc(OC)c1O [Compound 34, 4β-NH-(5-aminoindole)-4′-demethylepipodophyllotoxin] | 76.3 ± 5.7 µM | > 100 µM | > 100 µM | 21.7 ± 5.3 µM | > 100 µM | – |
| – | – | – | – | COc1cc(C2c3cc4c(cc3C(Nc3ccc5cc[nH]c5c3)C3COC(=O)C23)OCO4)cc(OC)c1O (stereo not drawn) [Compound 35, 4β-NH-(6-aminoindole)-4′-demethylepipodophyllotoxin] | 34.5 ± 3.8 µM | > 100 µM | 6.5 ± 1 µM | 21.1 ± 2.9 µM | 19.5 ± 2.4 µM | – |
| – | – | – | – | COc1cc(C2c3cc4c(cc3C(Nc3cccc5cc[nH]c35)C3COC(=O)C23)OCO4)cc(OC)c1O (stereo not drawn) [Compound 36, 4β-NH-(7-aminoindole)-4′-demethylepipodophyllotoxin] | 8 ± 5.5 µM | 31.5 ± 3.2 µM | 19.5 ± 1.5 µM | 15.4 ± 6.1 µM | 15.4 ± 2.2 µM | – |
| – | – | – | – | COc1cc(C2c3cc4c(cc3C(Nc3ccccc3-c3nc5ccccc5[nH]3)C3COC(=O)C23)OCO4)cc(OC)c1O (stereo not drawn) [Compound 37, 4β-NH-(2-(2-aminophenyl)benzimidazole)-4′-demethylepipodophyllotoxin] | > 100 µM | > 100 µM | > 100 µM | 48.6 ± 6.2 µM | > 100 µM | – |
| 53.8 ± 5.6 µM | 22.5 ± 1.8 µM | 21.4 ± 1.6 µM | 20 ± 1.3 µM | COc1cc([C@@H]2c3cc4c(cc3[C@@H](O[C@@H]3O[C@@H]5CO[C@@H](C)O[C@H]5[C@H](O)[C@H]3O)[C@H]3COC(=O)[C@H]23)OCO4)cc(OC)c1O [Etoposide, etoposide, reference compound] | – | – | – | – | – | 24.6 ± 3.8 µM |
